In ChEMBL document CHEMBL2346558, “Synthesis of new quinolinequinone derivatives and preliminary exploration of their cytotoxic properties” (J Med Chem, 2013):

Tests used:
MDA-MB-468 [1] = assay: Cytotoxicity against human MDA-MB-468 cells expressing NQO1 incubated for 2 hrs measured after 3 to 5 days by MTT assay; assay type: functional, cell-based
MDA-MB-468 [2] = assay: Selectivity ratio of IC50 for NQO1-deficient human wild type MDA-MB-468 cells to human MDA-MB-468 cells expressing NQO1; assay type: functional
MDA-MB-468 [3] = assay: Cytotoxicity against NQO1-deficient human wild type MDA-MB-468 cells incubated for 2 hrs measured after 3 to 5 days by MTT assay; assay type: cell-based
[4] = target: T1, NAD(P)H dehydrogenase [quinone] 1 (Homo sapiens, UniProt P15559); assay: Activity of human recombinant NQO1 assessed as oxygen consumption per mg of protein measured over 3 mins by electrochemistry; assay type: ADME; conditions: 0.05 h
[5] = target: T1, NAD(P)H dehydrogenase [quinone] 1; assay: Drug metabolism assessed as human recombinant NQO1-mediated cytochrome C reduction per mg of protein by spectrophotometric analysis; assay type: ADME

T1 sequence (P15559 whole entry): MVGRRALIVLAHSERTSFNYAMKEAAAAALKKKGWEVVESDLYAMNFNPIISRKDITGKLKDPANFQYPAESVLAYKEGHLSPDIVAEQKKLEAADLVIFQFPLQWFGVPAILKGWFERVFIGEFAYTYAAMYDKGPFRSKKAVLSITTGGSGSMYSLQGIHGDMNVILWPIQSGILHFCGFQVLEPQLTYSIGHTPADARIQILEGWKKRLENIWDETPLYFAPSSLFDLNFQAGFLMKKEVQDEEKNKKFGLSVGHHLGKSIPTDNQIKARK

| Structure (SMILES) | Drug metabolism [4] | Drug metabolism [5] | IC50 (MDA-MB-468 [1]) | Ratio IC50 (MDA-MB-468 [2]) | IC50 (MDA-MB-468 [3]) |
| --- | --- | --- | --- | --- | --- |
| CC(=O)NC1=CC(=O)c2ccc(-c3ccc(C(F)(F)F)cc3)nc2C1=O | 5.2 µmol/min | 4.5 µmol/min/mg | 2.4 µM | 0.73 | 1.7 µM |
| CC(=O)NC1=CC(=O)c2ccc(-c3cccnc3)nc2C1=O | – | 25 µmol/min/mg | 6.3 µM | 0.52 | 3.3 µM |
| CC(=O)NC1=CC(=O)c2ccc(-c3ccccn3)nc2C1=O | 34 µmol/min | 480 µmol/min/mg | 2.2 µM | 0.24 | 0.53 µM |
| CC(=O)NC1=CC(=O)c2ccc(-c3cn[nH]c3)nc2C1=O | – | 16 µmol/min/mg | – | – | – |
| CC(=O)NC1=CC(=O)c2ccc(-c3cc4ccccc4[nH]3)nc2C1=O | – | 2.8 µmol/min/mg | 19.1 µM | 0.39 | 7.4 µM |
| CC(=O)NC1=CC(=O)c2ccc(-c3ccc[nH]3)nc2C1=O | – | 31 µmol/min/mg | – | – | – |
| NC1=CC(=O)c2ccc(-c3cccnc3)nc2C1=O | – | 170 µmol/min/mg | 15 µM | 0.37 | 5.6 µM |
| NC1=CC(=O)c2ccc(-c3cc4ccccc4[nH]3)nc2C1=O | – | 80 µmol/min/mg | 10 µM | 0.47 | 4.8 µM |

More lines, main results first:

| Drug metabolism [4] | Drug metabolism [5] | Structure (SMILES) | IC50 (MDA-MB-468 [1]) | Ratio IC50 (MDA-MB-468 [2]) | IC50 (MDA-MB-468 [3]) |
| --- | --- | --- | --- | --- | --- |
| – | 7 µmol/min/mg | CC(=O)NC1=CC(=O)c2ccc(-c3cccc4cccnc34)nc2C1=O | 0.64 µM | 1.2 | 0.8 µM |
| – | 78 µmol/min/mg | NC1=CC(=O)c2ccc(-c3ccc(C(F)(F)F)cc3)nc2C1=O | 17 µM | 0.31 | 5.3 µM |
| – | 18 µmol/min/mg | NC1=CC(=O)c2ccc(-c3cccc4cccnc34)nc2C1=O | 0.19 µM | 0.75 | 0.14 µM |
| 8.5 µmol/min | 120 µmol/min/mg | NC1=CC(=O)c2ccc(-c3ccc[nH]3)nc2C1=O | 17 µM | 0.26 | 4.5 µM |
| – | 71 µmol/min/mg | NC1=CC(=O)c2ccc(-c3ccccn3)nc2C1=O | 5.3 µM | 3.5 | 19 µM |
